Reference: the NIST ThermoML archive (doi:10.1016/j.tca.2011.08.013)

What was measured:
[1] = Liquid; for viscosity: Capillary tube (Ostwald / Ubbelohde) method; for speed of sound: Linear variable-path acoustic interferometer; for mass density: Pycnometric method
[2] = xn = mol fraction of the nth substance listed; conditions: 101 kPa, Liquid; for viscosity: Capillary tube (Ostwald / Ubbelohde) method; for speed of sound: Linear variable-path acoustic interferometer; for mass density: Pycnometric method
[3] = mn = molality of the nth substance listed, in mol/kg; conditions: 101 kPa, Liquid; for viscosity: Capillary tube (Ostwald / Ubbelohde) method; for speed of sound: Linear variable-path acoustic interferometer; for mass density: Pycnometric method

C[S+](C)[O-] [dimethyl sulfoxide]
[1], 101.33 kPa
Conditions	mass density [kg/m3]	speed of sound [m/s]	viscosity [mPa·s]
308.15 K	1085.9	1457.9	1.655
318.15 K	1075.6	1423.4	1.392

C[S+](C)[O-] [dimethyl sulfoxide] + O
[2]
Conditions	mass density [kg/m3]	speed of sound [m/s]	viscosity [mPa·s]
303.15 K, x1 = 0.0121	1002	1534.6	0.9
303.15 K, x1 = 0.0255	1008	1556.6	0.979
303.15 K, x1 = 0.0424	1015.3	1580	1.089
303.15 K, x1 = 0.0583	1021.4	1602.7	1.224
308.15 K, x1 = 0.0121	1000.3	1541.3	0.805
308.15 K, x1 = 0.0255	1006.4	1561.7	0.888
308.15 K, x1 = 0.0424	1013.6	1583.1	0.988
308.15 K, x1 = 0.0583	1019.3	1603.5	1.102
313.15 K, x1 = 0.0121	998.5	1546.2	0.729
313.15 K, x1 = 0.0255	1004.4	1566	0.806
313.15 K, x1 = 0.0424	1011.4	1586.1	0.887
313.15 K, x1 = 0.0583	1017.6	1604.9	1.002
318.15 K, x1 = 0.0121	996.2	1552.4	0.667
318.15 K, x1 = 0.0255	1002.3	1569.7	0.735
318.15 K, x1 = 0.0424	1009.3	1587.2	0.808
318.15 K, x1 = 0.0583	1015.3	1603.3	0.903

[F-].[K+] [potassium fluoride] + O
[3]
Conditions	mass density [kg/m3]	speed of sound [m/s]	viscosity [mPa·s]
303.15 K, m1 = 0.05	998.2	1515.5	0.805
303.15 K, m1 = 0.1	1000.4	1518.9	0.811
303.15 K, m1 = 0.15	1002.6	1522.1	0.819
303.15 K, m1 = 0.2	1004.7	1525.8	0.827
308.15 K, m1 = 0.05	996.6	1524	0.726
308.15 K, m1 = 0.1	998.8	1526.9	0.734
308.15 K, m1 = 0.15	1001	1530.5	0.741
308.15 K, m1 = 0.2	1003.2	1534	0.745
313.15 K, m1 = 0.05	994.7	1531.4	0.66
313.15 K, m1 = 0.1	997	1536.1	0.668
313.15 K, m1 = 0.15	999.1	1538.6	0.672
313.15 K, m1 = 0.2	1001.2	1542.4	0.679
318.15 K, m1 = 0.05	992.7	1538.6	0.604
318.15 K, m1 = 0.1	994.8	1543.4	0.612
318.15 K, m1 = 0.15	997	1546.2	0.615
318.15 K, m1 = 0.2	999.2	1549.4	0.622

O [water]
[1], 101 kPa
Conditions	speed of sound [m/s]	viscosity [mPa·s]
303.15 K	1512	0.797
308.15 K	–	0.719
313.15 K	1528	0.653
318.15 K	1535.2	0.597
